Assay [1] has as its target T1, PRC2 containing wt EZH2 (Homo sapiens, UniProt Q15910).
T1 construct: made in house
The experiment in a line: EZH2 biochemical assay (IC50), incorporation of 3H-SAM into a biotinylated H3 peptide. The note with it: 30 pM PRC2 (wt EZH2, pentameric complex), pre-incubated 3-5 h, reaction 18-22 h. Here is the method: EZH2 biochemical assay (IC50): Compound potencies were assessed through incorporation of ^3H-SAM into a biotinylated H3 peptide. […] Quenching was accomplished by addition of 20 μl of STOP solution (50 mM Tris (pH 8.5), 200 mM EDTA, 2 mM SAH). 35 μl of the quenched solution was transferred to streptavidin coated FlashPlates (PerkinElmer), incubated 1-2 h, washed, and read in a TopCount Reader (PerkinElmer).

The test system of assay [2] is H3K27me3 in Hela cells. The experiment in a line: H3K27me3 Alpha Hela Assay (AlphaLISA). It is filed as cell-based. The note with it: Homo sapiens, 72 hrs. The procedure: H3K27me3 Alpha Hela Assay (AlphaLISA). Ten different doses of each test compound (in a series of 3-fold dilutions) were plated in duplicate 384-well tissue culture treated plates (Catalog #6007680; Perkin Elmer, Waltham, MA). Hela cells grown in culture were trypsinized and counted using a Countess® cell counter (Catalog #C10281; Life Technologies, Grand Island, NY). Cell were diluted to 67,000 cells per mL in10% DMEM (Catalog #10569-010 Life Technologies, Grand Island, NY) and 15 μL (1,000 cells) were plated into each well using the Biotek MicroFlo™ Select Dispenser (BioTek Instruments, Inc. Vermont, USA),) of the 384-well plate. Plates were incubated at 37° C./5% CO2 for 72 hrs. One of the duplicate plates was processed for HeLa assay and the other for viability. […] The plates were then read using an EnVision-Alpha Reader (model #2104 Perkin Elmer; Waltham, MA).
Cell viability was assayed by adding 15 μL of Cell Titer Glo ((Catalog #G9241 Promega Madison, WI) to each well with cells with media. The plates were incubated at RT for 15-20 minutes on a plate shaker at low speed. The plates were then read using an EnVision-Alpha Reader (model #2104 Perkin Elmer; Waltham, MA).
(In general: Bead proximity is the source of the signal in Alpha formats.)

In assay [3] the test system is Karpas-422 cell lines. The experiment in a line: Karpas-422 viability assay (Cell Titer-Glo). It is filed as cell-based. The conditions noted are these: Homo sapiens, Cell Titer-Glo on Day 8, cells split every 4 days. Here is the method: Karpas-422 cell lines were obtained from DSMZ (Braunschweig, Germany) and were grown in RPMI-1640 media. All media contained 10% fetal bovine serum (FBS) and 1% penicillin/streptomycin (Invitrogen). 20K cells per well were plated onto 96 well compound coated plates. Cells were split and seeded at original plating density (based on the DMSO well counts) every 4 days into plates containing fresh EZH2 inhibitors. Relative cell numbers were assessed by Cell Titer-Glo luminescent cell viability assay (Promega) on Day 8. GraphPad Prism 5 was used for curve fitting and GI50 values were reported.

The values below come from patent publication US11919912B2, “Modulators of methyl modifying enzymes, compositions and uses thereof” (Constellation Pharmaceuticals, Inc., priority 2018, dated 2024).

Each structure is given as a SMILES string.

T1 sequence (Q15910 whole entry): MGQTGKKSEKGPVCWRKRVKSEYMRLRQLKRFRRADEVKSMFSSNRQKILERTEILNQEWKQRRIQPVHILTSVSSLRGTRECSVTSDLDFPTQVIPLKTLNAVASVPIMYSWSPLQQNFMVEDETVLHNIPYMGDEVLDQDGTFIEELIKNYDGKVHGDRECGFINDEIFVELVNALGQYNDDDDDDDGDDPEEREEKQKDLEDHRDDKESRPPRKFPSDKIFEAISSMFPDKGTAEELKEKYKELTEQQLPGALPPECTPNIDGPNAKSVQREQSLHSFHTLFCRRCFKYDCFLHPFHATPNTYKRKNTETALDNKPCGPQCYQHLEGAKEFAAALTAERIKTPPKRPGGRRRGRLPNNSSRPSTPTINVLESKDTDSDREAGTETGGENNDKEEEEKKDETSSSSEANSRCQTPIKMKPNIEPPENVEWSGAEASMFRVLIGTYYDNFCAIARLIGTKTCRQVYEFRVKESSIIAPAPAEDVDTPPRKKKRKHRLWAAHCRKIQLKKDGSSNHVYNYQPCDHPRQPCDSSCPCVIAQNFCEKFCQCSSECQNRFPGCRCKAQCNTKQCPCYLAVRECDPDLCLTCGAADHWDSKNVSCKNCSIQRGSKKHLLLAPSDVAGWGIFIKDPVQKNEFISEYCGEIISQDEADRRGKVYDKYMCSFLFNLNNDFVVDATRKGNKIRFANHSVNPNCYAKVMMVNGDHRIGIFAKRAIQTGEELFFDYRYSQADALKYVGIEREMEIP
T1 sequence (O75530 whole entry partner): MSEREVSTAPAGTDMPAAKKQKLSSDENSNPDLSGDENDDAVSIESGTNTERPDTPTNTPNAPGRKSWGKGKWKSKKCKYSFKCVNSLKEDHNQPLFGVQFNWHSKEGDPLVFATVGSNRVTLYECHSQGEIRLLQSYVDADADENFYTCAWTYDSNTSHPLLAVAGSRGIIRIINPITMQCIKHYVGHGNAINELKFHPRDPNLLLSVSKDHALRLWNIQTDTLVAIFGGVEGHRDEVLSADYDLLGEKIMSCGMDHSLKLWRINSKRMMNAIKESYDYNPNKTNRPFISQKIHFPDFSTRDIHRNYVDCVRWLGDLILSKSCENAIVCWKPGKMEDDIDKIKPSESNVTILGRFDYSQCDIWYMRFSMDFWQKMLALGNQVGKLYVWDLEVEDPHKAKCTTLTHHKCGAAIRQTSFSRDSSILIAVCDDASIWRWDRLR
T1 sequence (Q15022 whole entry partner): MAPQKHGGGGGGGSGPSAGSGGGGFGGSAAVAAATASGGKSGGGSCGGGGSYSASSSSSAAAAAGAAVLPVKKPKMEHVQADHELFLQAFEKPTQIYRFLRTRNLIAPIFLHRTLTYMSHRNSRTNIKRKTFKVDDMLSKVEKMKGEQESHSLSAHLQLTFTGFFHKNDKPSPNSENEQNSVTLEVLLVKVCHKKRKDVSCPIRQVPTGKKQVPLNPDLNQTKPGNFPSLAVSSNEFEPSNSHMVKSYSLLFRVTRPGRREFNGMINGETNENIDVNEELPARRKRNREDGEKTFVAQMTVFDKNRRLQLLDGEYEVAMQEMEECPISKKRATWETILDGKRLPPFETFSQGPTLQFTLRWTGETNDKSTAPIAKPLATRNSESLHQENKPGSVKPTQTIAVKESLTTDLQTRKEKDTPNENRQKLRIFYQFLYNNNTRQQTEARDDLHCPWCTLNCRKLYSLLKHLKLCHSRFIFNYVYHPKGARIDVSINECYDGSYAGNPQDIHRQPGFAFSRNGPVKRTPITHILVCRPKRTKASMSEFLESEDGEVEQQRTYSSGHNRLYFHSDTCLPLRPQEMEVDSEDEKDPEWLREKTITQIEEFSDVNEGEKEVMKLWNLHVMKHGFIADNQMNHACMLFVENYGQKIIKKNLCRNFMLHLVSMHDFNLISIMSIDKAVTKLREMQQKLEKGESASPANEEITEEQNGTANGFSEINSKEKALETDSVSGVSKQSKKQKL
T1 sequence (Q09028 whole entry partner): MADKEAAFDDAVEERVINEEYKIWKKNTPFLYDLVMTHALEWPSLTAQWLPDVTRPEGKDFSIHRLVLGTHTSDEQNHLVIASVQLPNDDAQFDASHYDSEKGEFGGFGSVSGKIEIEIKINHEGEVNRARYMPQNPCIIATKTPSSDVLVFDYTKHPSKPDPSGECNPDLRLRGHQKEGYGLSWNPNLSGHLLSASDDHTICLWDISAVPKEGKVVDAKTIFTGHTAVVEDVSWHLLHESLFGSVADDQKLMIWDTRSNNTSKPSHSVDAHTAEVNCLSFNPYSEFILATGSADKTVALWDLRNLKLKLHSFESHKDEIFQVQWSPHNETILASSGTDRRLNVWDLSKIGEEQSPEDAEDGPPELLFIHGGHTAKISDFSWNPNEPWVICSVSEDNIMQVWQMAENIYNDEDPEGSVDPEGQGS
T1 sequence (Q6ZN18 whole entry partner): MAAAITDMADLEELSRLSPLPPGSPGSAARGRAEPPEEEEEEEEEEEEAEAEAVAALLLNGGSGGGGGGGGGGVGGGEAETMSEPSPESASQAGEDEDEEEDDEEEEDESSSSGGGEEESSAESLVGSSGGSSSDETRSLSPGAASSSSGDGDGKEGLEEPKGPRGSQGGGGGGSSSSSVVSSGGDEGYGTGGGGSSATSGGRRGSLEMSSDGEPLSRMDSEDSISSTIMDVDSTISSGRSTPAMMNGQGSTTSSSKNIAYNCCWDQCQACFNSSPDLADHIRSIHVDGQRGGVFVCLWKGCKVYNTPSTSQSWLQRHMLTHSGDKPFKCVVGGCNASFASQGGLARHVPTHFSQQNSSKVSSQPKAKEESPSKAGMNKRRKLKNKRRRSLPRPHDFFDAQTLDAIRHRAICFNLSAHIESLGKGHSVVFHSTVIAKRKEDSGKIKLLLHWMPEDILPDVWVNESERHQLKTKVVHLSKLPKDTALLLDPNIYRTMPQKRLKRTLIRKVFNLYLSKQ

Compound `CSc1cc(C)[nH]c(=O)c1Cn1ccc2c(Cl)c3c(c(C)c2c1=O)OC(C)([C@H]1CC[C@H](N(C)C)CC1)O3` (mixture of isomers) [Example 2, 9-Chloro-2-(Trans-4-(Dimethylamino)Cyclohexyl)-2,4-Dimethyl-6-((6-Methyl-4-(Methylthio)-2-Oxo-1,2-Dihydropyridin-3-Yl)Methyl)-[1,3]Dioxolo[4,5-g]Isoquinolin-] showed a half-maximal inhibitory concentration (IC50) in assay [1] of 0.061 to 0.073 nM.

For the compound `CSc1cc(C)[nH]c(=O)c1CN1CCc2c(Cl)c3c(c(C)c2C1=O)OC(C)([C@H]1CC[C@H](N(C)C)CC1)O3` (single isomer, unassigned) [Example 1, Peak 1, 9-Chloro-2-(Trans-4-(Dimethylamino)Cyclohexyl)-2,4-Dimethyl-6-((6-Methyl-4-(Methylthio)-2-Oxo-1,2-Dihydropyridin-3-Yl)Methyl)-7,8-Dihydro-[1,3]Dioxolo[4,5-g]Isoquinolin-5(6H)-One], the concentration for a half-maximal effect (EC50) in assay [2] lay within 0.849 to 1.13 nM. The compound further had a concentration for 50% growth inhibition (GI50) in assay [3] of 5.7 nM.

Broadly, the IC50 is the point on the concentration scale where inhibition reaches its midpoint. Broadly, the EC50 is the concentration at which the effect is half-maximal. Read a high EC50 as a less potent agent. As usually defined, the GI50 is the concentration giving 50% growth inhibition. Read a high GI50 as less potent growth inhibition.
